Reference: article PMC12363342, “Investigating the N-terminal linker histone H1 subtypes as substrates for JmjC lysine demethylases” (RSC Chemical Biology, 2025)
Square brackets hold non-standard residues; d marks the D form. Ends that are not written are not given here. Lys(Me3) = C[N+](C)(C)CCCC[C@H](N)C(=O)O

Target: T1, KDM4D (Homo sapiens, UniProt Q6B0I6)
T1 construct: KDM4AM1-L359,[38]; KDM4DM1-L359,[39]; KDM4EM1-R336,[30]; His6 (N); made in house; host or cells: Escherichia coli
T1 sequence (Q6B0I6 1-359): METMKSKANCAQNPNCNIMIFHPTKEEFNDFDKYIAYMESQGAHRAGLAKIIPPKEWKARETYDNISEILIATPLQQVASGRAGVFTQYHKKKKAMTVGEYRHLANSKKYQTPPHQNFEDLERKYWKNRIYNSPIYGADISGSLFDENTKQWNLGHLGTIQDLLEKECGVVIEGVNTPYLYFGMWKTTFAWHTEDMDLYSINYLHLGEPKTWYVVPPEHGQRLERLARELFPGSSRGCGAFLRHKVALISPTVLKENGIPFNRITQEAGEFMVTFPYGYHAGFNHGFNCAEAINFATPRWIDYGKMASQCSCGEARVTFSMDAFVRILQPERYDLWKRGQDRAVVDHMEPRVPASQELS
Assay: time-course 1H NMR assay of succinate production, KDM4D
Assay type: biochemical
Conditions: KDM4D 10 μM, 2OG 400 μM, peptide 400 μM; for oxidation of H1 peptide by KDM4D (succinate production arising from 2OG oxidation): 1H NMR 700 MHz, 298 K, Fe(II) 100 μM, L-ascorbate 1 mM, 50 mM Tris-d11 pH 7.5, 60 min, two independent experiments; for succinate production rate with KDM4D, relative: 1H NMR time course, pH 7.5, compared to H1.4K25me3
Excerpt: Fig. 6 Time-course ^1H NMR analysis for reactions of KDM4D with H1 peptides. (A) KDM4D-catalysed succinate production for H1.3K24me3 (turquoise), H1.4K25me3 (raspberry), and H1.5K26me3 (khaki) compared to that without peptides (black). (B) KDM4D in the presence of 2OG without the H1 peptide; note that only low-level succinate production is observed. (C) Production of succinate measured for KDM4D/H1.3K24me3 over time, as evidenced by increasing integration of the singlet at δ^1H 2.31 ppm (corresponding to the succinate methylenes). Assay conditions are described in the Experimental details section.
NMR spectra were acquired at 298 K using a Bruker AVIII 700 MHz NMR spectrometer equipped with a TCI helium-cooled CryoProbe. Data were processed using TopSpin v.3.6.2 software. Signal intensities were calibrated relative to TSP, δH 0 ppm, and the chemical shifts (ppm) are relative to the resonance of the solvent, δH 4.7 ppm. Assay mixtures contained KDM4D (10 μM), 2OG (400 μM), H1_20–34 peptide (400 μM), Fe(II) ammonium sulfate (100 μM), L-ascorbate (1 mM) and internal standard, 3-(trimethylsilyl)-2,2,3,3-tetradeuteropropionic acid (TSP, 800 μM) in 50 mM Tris-d11, pH 7.5. Aqueous stocks of 2OG, Fe(II) ammonium sulfate and L-ascorbate were prepared fresh on the day of testing. Samples were transferred to 3-mm diameter MATCH NMR tubes (CortecNet) and monitored by ^1H excitation sculpting with baseline optimisation using 16 transients. The time lapse between sample mixing and data acquisition was 6–7 min. The spectra were acquired every 2 min over 60 min. Starting material and product concentrations were quantified relative to the TSP concentration. Samples from two independent experiments were analysed by NMR spectroscopy.

| Substance | oxidation of H1 peptide by KDM4D (succinate production arising from 2OG oxidation) | succinate production rate with KDM4D, relative |
| --- | --- | --- |
| KKKAR[Lys(Me3)]SAGAAKRKA [Peptide H1.4K25me3, 15-mer linker histone H1.4 residues 20-34 peptide, tri-methylated K25] | clear evidence for oxidation |  |
| KKKA[Lys(Me3)]KAGATAGKRK [Peptide H1.3K24me3, 15-mer linker histone H1.3 residues 20-34 peptide, tri-methylated K24] | clear evidence for oxidation | slightly slower succinate production compared to H1.4K25me3 |
| KKKATK[Lys(Me3)]AAGAGAAK [Peptide H1.5K26me3, 15-mer linker histone H1.5 residues 20-34 peptide, tri-methylated K26] | clear evidence for oxidation | slightly slower succinate production compared to H1.4K25me3 |
